Measurements published in patent US20020173489A1, “COMPOSITIONS CONTAINING A MIXTURE OF PHOSPHOROUS COMPOUNDS AND ALKYLGLYCEROLS” (priority 1987, published 2002).
Entries after “also recorded” stand apart in the source; their conditions may differ.

What was measured:
[1] = test system: chemically-induced mammary carcinomas; assay: chemically-induced mammary carcinomas in rats, oral potable solution; assay type: in vivo, rat; settings: daily doses of 20, 40 and 60 mg/kg body weight
Source text: For oral administration, the compounds of formula I are advantageously used in the form of a potable solution. Suitable potable carriers for this purpose include milks, cocoa, fruit juices and drinking water. The preparation of such potable solutions can involve, for example, diluting a concentrated alcoholic solution of a compound of the formula I or I′ with water or with another one of the previously mentioned carriers. […] The tumor model used for these experiments was a so-called hard model. This means that the findings obtained with this model can also be applied to humans.

wart-shaped excrescence = assay: topical treatment of a wart-shaped excrescence (Example 9); assay type: in vivo, human
Method: A person presented a wart-shaped excrescence of increasing size (diameter: about 5 mm; height: about 3 mm), formed at the site of a stab wound on their right middle finger after an initial inflammatory reaction. The excrescence grew over a period of about 1.5 years. There was heavy vascularization at the site, as well as superficial furrowing. The position of the wart (side facing the ring finger), made it quite susceptible to injury.
The patient was treated by topically administering a composition containing 40 mg/ml hexadecylphosphocholine, 317 mg/ml of 3-propoxypropyleneglycol, 158 mg/ml of hexyloxypropyleneglycol, and 158 mg/ml of nonyloxypropyleneglycol, in solution, and then a solution containing 60 mg/ml of the hexadecy/phosphocholine, and the other components above, in the same amounts. The solutions were administered topically, 2-3 times per day.
The excrescence rapidly developed a horny surface, and regressed. Cornified residues were removable without bleeding. The treatment was terminated […] the surrounding skin level was reached. This took about 6 weeks. When the patient was examined about 8 weeks later, the condition was stable. […] It is believed that this was the result of regeneration of the epidermis in the excrescence region.

| Structure (SMILES) | remission of chemically-induced mammary carcinomas [1] | condition at follow-up (wart-shaped excrescence; examined about 8 weeks after end of treatment) | effect on the excrescence (wart-shaped excrescence; person, topical 2-3 times per day, 40 then 60 mg/ml in propoxy-/hexyloxy-/nonyloxypropyleneglycol solution) | damage to surrounding healthy skin regions (wart-shaped excrescence; topical) | time of treatment until termination (before surrounding skin level was reached) (wart-shaped excrescence; topical 2-3 times per day) | skin reactions (wart-shaped excrescence; topical, reddening disappeared after about 2 weeks) |
| --- | --- | --- | --- | --- | --- | --- |
| CCCCCCCC/C=C\CCCCCCCCOP(=O)([O-])OCC[N+](C)(C)C [oleylphosphocholine] | complete remission |  |  |  |  |  |
| CCCCCCCCCCCCCCCCOP(=O)([O-])OCC[N+](C)(C)C [hexadecylphosphocholine] |  | stable | regressed | no apparent damage | about 6 weeks | slight reddening of the skin; also recorded: slight peeling of healthy skin |
